Source: PubChem BioAssay AID651788 (The Scripps Research Institute Molecular Screening Center, 2012)
Activity calls are given as the source filed them.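 Rule for the calls: active = IC50 for SRC3 coactivator inhibition, the dose giving half inhibition, at or below 10 µM; inactive = IC50 above 10 µM.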

These compounds were tested against Nuclear receptor coactivator 3 (Homo sapiens) (UniProt Q9Y6Q9) (assay: inhibition of GAL4-SRC3 reporter transcription – cell-based, HEK293, GAL4-SRC3 luciferase, powder samples, late-stage follow-up (AID 651788)). Conditions: luminescence.
Nuclear receptor coactivator 3 (Homo sapiens), sequence (Q9Y6Q9 whole entry, looked up, the tested form may be a part): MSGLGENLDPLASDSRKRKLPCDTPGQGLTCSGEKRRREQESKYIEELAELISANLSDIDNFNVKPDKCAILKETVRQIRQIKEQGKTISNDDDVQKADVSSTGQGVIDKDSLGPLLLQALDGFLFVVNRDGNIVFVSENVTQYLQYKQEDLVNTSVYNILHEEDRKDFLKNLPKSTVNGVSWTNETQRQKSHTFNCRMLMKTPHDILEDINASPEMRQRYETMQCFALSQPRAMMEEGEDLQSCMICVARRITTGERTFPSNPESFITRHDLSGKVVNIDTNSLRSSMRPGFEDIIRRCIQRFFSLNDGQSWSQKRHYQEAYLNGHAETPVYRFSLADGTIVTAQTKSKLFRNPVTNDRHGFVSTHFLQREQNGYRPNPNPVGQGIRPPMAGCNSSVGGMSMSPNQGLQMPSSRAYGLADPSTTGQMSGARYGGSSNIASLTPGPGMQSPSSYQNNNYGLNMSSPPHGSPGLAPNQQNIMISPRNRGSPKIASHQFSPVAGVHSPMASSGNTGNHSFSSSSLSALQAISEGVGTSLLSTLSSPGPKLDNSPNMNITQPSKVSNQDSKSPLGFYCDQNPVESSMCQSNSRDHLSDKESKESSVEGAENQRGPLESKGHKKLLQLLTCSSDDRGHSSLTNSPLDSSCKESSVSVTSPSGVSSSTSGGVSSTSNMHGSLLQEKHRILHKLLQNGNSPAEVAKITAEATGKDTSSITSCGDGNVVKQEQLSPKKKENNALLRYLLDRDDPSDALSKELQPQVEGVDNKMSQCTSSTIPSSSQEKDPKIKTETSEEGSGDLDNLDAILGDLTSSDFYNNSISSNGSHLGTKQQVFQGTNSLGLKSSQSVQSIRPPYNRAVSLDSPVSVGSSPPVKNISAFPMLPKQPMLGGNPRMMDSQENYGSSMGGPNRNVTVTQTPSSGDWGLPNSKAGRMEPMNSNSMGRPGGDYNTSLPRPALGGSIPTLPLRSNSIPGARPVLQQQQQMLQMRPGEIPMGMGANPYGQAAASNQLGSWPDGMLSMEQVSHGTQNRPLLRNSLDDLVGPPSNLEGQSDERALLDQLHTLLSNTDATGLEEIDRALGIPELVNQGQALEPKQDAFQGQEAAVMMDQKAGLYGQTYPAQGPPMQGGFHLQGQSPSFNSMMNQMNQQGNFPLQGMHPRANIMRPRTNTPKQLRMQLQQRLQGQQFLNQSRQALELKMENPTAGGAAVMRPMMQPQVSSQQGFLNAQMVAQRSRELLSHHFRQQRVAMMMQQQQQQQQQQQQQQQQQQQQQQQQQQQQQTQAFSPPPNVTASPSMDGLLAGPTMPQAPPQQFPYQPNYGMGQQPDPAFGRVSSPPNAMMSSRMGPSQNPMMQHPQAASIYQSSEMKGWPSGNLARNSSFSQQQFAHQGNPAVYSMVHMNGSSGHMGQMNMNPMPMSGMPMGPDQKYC

Compared with O=C(COC(=O)c1ccc[nH]c1=O)Nc1ccc(N2CCCCC2)cc1, OCCN1CCN(C(=S)c2ccc(-c3ccccc3)cc2)CC1 is 1.7-fold lower in IC50: 8.32 µM for the first, 4.97 µM for the second. The second is the more potent here.

CN1C(=O)C2(C(C#N)=C(N)N(c3cc(Cl)cc(Cl)c3)C3=C2C(=O)CC(C)(C)C3)c2ccccc21 (stereo not drawn) and CN1C(=O)C2(C(C#N)=C(N)N(c3cc(Cl)cc(Cl)c3)C3=C2C(=O)CCC3)c2ccccc21 (stereo not drawn) are within 1.5-fold of each other in IC50: 4.44 µM for the first, 5.74 µM for the second.

O=C(Nc1ccccc1Oc1ccccc1)c1cc([N+](=O)[O-])ccc1Cl and CCCNC(=O)c1nnsc1S(=O)(=O)c1ccc(Cl)cc1 are within 1.5-fold of each other in IC50: 3.1 µM for the first, 3.96 µM for the second.

Cc1ccc(OCC(=O)c2cc(C)n(-c3ccccc3)c2C)c([N+](=O)[O-])n1 was tested, and the IC50 was “inactive”.
In the case of CC(C)(C)c1ccc(-c2noc(CCC(=O)Nc3cccnc3)n2)cc1, the IC50 is reported as > 12 µM (inactive).
